# Test results: patent publication US9833451B2 (priority 2007, dated 2017)
# Where a name gives a salt, the structure may show the parent alone. Read-outs that look alike come from different tables or passages of the source.
# What was measured:
# 5-HT1B = assay: Radioligand receptor binding at concentrations equivalent to Cmax
# Text: (§1) “(h)” represents cloned human receptor subtypes.
# (§2) Table 2 presents in vitro concentrations equivalent to Cmax.
# 5-HT1D receptors = 5-HT1D receptors (Homo sapiens, UniProt P28221); assay: as above; details: following inhalation, compared with IV
# Text: as §1, §2
# 5-HT3 receptors [1] = target: T1, 5-HT3 receptors (Homo sapiens, UniProt P46098); assay: as above; details: all DHE delivery routes investigated, <20% classed as inactive
# Text: as §1, §2
# D2 receptor = D2 receptor (Homo sapiens, UniProt P14416); assay: as above
# Text: “(h)” represents cloned human receptor subtypes and “NS” indicates non-specific binding.
# as §2
# 5-HT3 receptors [2] = target: T1, 5-HT3 receptors; assay: Functional assays at 5-HT3 receptors; assay type: biochemical
# Text: 5-HT3 receptors are known to be implicated in nausea. Antagonists at these receptors, such as ondansetron and granisetron prevent chemotherapy-induced nausea and vomiting.
# 5-HT1B receptors = 5-HT1B receptors (Homo sapiens, UniProt P28222); assay: Selective agonism at various concentrations of DHE (FIG. 5); assay type: biochemical; details: 5 μm control, 77.6 nM (IV Cmax), 6.25 nM (4 inhalations Cmax), 0.25 nM
# Text: (§3) Agonists of 5-HT1B subtype receptors are known to be useful in the treatment of migraine and associated symptoms. 5-HT2B receptors are known to play a triggering role in the onset of migraine.
# 5-HT2B receptors = 5-HT2B receptors (Homo sapiens, UniProt P41595); assay: as above; assay type: biochemical; details: orally-inhaled DHE concentrations (6.25 nM at Cmax of 4 inhalations)
# Text: as §3
# clinical = details: for Cmax: human, in vivo; for Concentration equivalent to peak plasma concentration (Cmax): human plasma
# Text: The inhaled doses represent the expected systemic delivered dose and were estimated from the fine particle dose delivered ex-actuator.
# [3] = Side effects in clinical study of IV versus inhaled DHE; assay type: in vivo, human
# Text: The inventors have discovered that these slightly delayed, lower peak pharmacokinetic profiles are associated with minimized side effects.
# [4] = test system: migraine pain in subjects; assay: Relief from migraine pain after inhaled DHE (FIG. 1); assay type: in vivo, human; details: administration giving the two lower peak plasma profiles of FIG. 2
# [5] = target: Serotonin receptor subtype 1A (Homo sapiens, UniProt P08908); details: read-out: Affinity IC50; cited from earlier work
# [6] = target: Serotonin receptor subtype 1B (Homo sapiens, UniProt P28222); details: read-out: Affinity IC50; cited from earlier work
# [7] = target: Serotonin receptor subtype 1D (Homo sapiens, UniProt P28221); details: read-out: Affinity IC50; cited from earlier work
# [8] = target: Serotonin receptor subtype 1E (Homo sapiens, UniProt P28566); details: read-out: Affinity IC50; cited from earlier work
# [9] = target: Serotonin receptor subtype 1F (Homo sapiens, UniProt P30939); details: read-out: Affinity IC50; cited from earlier work
# [10] = target: Serotonin receptor subtype 2C (Homo sapiens, UniProt P28335); details: read-out: Affinity IC50; cited from earlier work
# [11] = target: Serotonin receptor subtype 3 (Homo sapiens, UniProt P46098); details: read-out: Affinity IC50; cited from earlier work
# [12] = target: Serotonin receptor subtype 5; details: read-out: Affinity IC50; cited from earlier work
# [13] = target: Adrenergic receptor subtype α1a (Homo sapiens, UniProt P35348); details: read-out: Affinity IC50; cited from earlier work
# [14] = target: Adrenergic receptor subtype α1b (Homo sapiens, UniProt P35368); details: read-out: Affinity IC50; cited from earlier work
# [15] = target: Adrenergic receptor subtype β1 (Homo sapiens, UniProt P08588); details: read-out: Affinity IC50; cited from earlier work
# [16] = target: Adrenergic receptor subtype β3 (Homo sapiens, UniProt P13945); details: read-out: Affinity IC50; cited from earlier work
# [17] = target: Dopaminergic receptor subtype D2 (Homo sapiens, UniProt P14416); details: read-out: Affinity IC50; cited from earlier work
# [18] = target: Dopaminergic receptor subtype D3 (Homo sapiens, UniProt P35462); details: read-out: Affinity IC50; cited from earlier work
# [19] = target: Dopaminergic receptor subtype D4 (Homo sapiens, UniProt P21917); details: read-out: Affinity IC50; cited from earlier work
# [20] = given subcutaneously at a concentration of only 1.5 mM; cited from earlier work
# muscarinic (M) receptors = details: cited from earlier work
# [21] = cited from earlier work
# [22] = pulmonary delivery; cited from earlier work
# [23] = after inhalable administration of DHE
# Chain of D2 receptor (P14416 whole entry): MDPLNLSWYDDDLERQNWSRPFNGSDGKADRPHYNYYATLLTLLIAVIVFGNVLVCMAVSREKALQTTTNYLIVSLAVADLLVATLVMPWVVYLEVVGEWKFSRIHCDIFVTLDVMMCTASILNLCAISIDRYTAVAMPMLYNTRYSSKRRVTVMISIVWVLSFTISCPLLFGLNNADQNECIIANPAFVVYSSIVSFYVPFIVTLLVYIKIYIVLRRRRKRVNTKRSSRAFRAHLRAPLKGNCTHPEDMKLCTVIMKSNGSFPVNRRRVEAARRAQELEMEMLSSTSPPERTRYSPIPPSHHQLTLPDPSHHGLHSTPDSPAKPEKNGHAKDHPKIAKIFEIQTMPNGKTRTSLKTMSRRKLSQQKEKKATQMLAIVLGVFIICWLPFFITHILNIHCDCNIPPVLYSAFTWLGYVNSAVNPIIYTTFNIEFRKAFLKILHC
# T1 sequence (P46098 24-478): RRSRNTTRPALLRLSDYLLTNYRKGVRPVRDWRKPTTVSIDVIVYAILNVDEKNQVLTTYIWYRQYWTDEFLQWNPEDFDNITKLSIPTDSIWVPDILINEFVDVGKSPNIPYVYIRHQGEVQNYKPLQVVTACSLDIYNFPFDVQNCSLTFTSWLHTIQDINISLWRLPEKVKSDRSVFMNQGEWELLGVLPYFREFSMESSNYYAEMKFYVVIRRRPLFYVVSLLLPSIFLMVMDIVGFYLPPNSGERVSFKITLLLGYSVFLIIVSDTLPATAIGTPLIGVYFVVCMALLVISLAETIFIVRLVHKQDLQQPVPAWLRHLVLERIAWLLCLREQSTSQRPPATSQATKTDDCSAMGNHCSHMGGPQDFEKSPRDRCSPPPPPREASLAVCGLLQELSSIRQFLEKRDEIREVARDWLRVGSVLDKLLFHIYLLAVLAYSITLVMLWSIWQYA
# Chain of 5-HT1B receptors (P28222 whole entry): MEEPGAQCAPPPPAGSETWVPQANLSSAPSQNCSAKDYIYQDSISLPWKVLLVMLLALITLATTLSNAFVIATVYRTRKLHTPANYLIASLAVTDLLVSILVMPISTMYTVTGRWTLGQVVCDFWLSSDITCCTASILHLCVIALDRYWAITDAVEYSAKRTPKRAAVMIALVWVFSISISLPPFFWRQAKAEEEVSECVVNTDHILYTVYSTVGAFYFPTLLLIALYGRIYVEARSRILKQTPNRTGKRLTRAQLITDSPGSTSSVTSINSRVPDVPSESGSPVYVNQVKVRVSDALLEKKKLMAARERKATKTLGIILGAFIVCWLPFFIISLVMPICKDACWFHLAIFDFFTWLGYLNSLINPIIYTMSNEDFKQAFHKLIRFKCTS
# Chain of Serotonin receptor subtype 1B (P28222 whole entry): as above
# Chain of Dopaminergic receptor subtype D3 (P35462 whole entry): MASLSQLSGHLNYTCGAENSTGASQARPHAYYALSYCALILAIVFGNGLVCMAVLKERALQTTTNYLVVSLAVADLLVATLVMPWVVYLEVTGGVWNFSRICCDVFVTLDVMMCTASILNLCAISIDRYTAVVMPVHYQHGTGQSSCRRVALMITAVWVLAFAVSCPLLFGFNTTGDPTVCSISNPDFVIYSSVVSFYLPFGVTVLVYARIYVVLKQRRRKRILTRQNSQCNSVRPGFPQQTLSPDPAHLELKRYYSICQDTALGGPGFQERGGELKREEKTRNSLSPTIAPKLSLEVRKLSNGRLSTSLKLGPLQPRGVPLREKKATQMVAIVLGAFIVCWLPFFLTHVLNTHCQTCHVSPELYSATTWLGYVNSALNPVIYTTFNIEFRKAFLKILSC
# Chain of Adrenergic receptor subtype α1a (P35348 whole entry): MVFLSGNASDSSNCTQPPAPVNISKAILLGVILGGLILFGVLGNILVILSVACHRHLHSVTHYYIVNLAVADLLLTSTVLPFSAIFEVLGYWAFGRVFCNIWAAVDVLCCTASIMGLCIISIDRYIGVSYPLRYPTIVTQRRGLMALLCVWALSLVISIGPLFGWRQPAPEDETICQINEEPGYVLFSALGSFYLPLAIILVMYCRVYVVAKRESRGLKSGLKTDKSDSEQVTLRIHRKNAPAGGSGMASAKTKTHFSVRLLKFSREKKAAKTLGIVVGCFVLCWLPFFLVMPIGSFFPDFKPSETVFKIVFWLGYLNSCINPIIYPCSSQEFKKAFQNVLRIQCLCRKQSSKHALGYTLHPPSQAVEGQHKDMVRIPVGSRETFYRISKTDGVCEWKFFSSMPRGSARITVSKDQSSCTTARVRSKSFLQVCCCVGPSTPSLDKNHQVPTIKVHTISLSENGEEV
# Chain of Serotonin receptor subtype 1F (P30939 whole entry): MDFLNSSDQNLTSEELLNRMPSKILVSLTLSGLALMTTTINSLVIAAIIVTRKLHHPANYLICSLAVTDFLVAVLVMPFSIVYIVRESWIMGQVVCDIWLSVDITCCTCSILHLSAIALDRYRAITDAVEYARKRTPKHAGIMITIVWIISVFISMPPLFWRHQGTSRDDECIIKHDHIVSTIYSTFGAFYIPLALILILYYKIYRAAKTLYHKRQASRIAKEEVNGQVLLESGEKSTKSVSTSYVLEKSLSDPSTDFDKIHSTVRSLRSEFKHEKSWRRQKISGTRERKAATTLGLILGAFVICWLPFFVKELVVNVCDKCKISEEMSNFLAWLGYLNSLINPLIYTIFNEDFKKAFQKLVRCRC
# Chain of Serotonin receptor subtype 1A (P08908 whole entry): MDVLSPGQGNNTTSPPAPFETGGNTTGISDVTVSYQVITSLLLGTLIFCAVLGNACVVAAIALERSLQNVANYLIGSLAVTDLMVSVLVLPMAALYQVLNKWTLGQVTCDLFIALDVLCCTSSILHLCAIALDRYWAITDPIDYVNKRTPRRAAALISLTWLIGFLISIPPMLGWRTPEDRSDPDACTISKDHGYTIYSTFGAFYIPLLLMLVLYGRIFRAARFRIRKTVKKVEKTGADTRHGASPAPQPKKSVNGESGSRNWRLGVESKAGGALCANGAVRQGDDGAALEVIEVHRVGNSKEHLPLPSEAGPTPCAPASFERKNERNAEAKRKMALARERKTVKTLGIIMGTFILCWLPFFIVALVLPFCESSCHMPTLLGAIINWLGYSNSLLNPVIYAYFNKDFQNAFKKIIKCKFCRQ
# Chain of Dopaminergic receptor subtype D2 (P14416 whole entry): as the sequence (P14416 whole entry) above
# Chain of Serotonin receptor subtype 1D (P28221 whole entry): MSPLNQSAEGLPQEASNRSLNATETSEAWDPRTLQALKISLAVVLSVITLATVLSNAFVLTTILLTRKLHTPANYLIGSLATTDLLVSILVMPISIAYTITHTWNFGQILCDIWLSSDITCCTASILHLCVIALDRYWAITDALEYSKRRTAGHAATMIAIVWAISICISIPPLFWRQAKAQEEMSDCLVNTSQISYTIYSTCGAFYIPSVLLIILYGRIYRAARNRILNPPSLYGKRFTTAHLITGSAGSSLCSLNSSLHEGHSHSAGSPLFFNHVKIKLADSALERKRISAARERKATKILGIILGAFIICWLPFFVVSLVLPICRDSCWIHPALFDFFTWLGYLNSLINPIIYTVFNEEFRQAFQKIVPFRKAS
# Chain of 5-HT1D receptors (P28221 whole entry): as above
# Chain of Adrenergic receptor subtype α1b (P35368 whole entry): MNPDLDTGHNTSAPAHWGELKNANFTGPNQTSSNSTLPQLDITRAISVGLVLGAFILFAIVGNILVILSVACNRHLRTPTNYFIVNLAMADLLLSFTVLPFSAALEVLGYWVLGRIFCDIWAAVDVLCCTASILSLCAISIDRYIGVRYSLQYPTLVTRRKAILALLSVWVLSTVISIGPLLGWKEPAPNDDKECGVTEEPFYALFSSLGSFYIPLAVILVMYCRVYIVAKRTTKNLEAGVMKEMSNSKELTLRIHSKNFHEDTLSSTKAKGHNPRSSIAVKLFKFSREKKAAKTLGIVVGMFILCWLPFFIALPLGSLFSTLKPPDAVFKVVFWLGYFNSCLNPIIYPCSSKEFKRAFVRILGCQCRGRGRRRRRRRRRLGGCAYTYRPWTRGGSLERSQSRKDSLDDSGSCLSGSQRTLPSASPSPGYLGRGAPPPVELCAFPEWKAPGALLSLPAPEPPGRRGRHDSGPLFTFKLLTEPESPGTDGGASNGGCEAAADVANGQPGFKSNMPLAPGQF
# Chain of Serotonin receptor subtype 1E (P28566 whole entry): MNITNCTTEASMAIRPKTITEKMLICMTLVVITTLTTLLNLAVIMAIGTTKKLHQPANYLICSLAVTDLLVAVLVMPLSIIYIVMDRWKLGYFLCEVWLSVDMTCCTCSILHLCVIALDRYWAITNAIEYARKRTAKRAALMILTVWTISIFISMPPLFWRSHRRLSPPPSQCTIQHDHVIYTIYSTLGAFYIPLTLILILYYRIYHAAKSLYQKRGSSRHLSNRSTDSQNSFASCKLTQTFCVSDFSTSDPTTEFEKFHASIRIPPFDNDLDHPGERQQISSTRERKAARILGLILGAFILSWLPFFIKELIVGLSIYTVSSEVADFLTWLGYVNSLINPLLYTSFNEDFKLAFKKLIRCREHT
# Chain of Dopaminergic receptor subtype D4 (P21917 whole entry): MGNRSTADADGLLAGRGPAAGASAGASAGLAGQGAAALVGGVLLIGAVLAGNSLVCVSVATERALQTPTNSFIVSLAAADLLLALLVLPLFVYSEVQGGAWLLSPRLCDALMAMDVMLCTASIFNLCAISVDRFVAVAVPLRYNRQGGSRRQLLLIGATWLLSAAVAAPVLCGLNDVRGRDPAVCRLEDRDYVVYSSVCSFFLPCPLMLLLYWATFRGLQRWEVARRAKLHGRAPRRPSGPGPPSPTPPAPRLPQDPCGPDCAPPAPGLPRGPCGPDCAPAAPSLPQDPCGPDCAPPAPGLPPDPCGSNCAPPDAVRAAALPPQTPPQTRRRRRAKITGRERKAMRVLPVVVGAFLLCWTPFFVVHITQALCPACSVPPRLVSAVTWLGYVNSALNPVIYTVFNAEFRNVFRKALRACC
# Chain of Serotonin receptor subtype 3 (P46098 24-478): as the sequence (P46098 24-478) above
structure (smiles),measurement,setting,value
"CN1C[C@H](C(=O)N[C@]2(C)O[C@@]3(O)[C@@H]4CCCN4C(=O)[C@H](Cc4ccccc4)N3C2=O)C[C@@H]2c3cccc4[nH]cc(c34)C[C@H]21 [DHE, dihydroergotamine mesylate]",binding at 5-HT1B,5-HT1B; Cmax following 0.88 mg inhaled dosing,100%
same,binding at 5-HT1B,5-HT1B; Cmax following 1 mg intravenous dosing,100%
same,apparent binding at 5-HT1D receptors,5-HT1D receptors,lower than IV
same,binding at 5-HT3 receptors,5-HT3 receptors [1],< 20%
same,receptor binding in D2 assays,D2 receptor; IV dose Cmax levels,50%
same,binding in D2 assays,D2 receptor; after inhaled dosing (Cmax levels),no binding affinity
same,agonist or antagonist activity at 5-HT3 receptors,5-HT3 receptors [2],lack of agonist or antagonist activity
same,agonism at 5-HT1B receptors,5-HT1B receptors,maintained across all concentrations
same,agonism at 5-HT2B receptors,5-HT2B receptors,agonism is absent
same,time to rapid plasma levels,clinical; all three methods of administration (FIG. 2),≤ 20 min
same,difference in AUC,clinical; between 1 mg IV and 0.88 mg inhaled,1.2 fold
same,Cmax,"clinical; inhaled or intranasal, 0.44 mg",1.34 ng/mL
same,Cmax,"clinical; inhaled or intranasal, 0.88 mg",4.29 ng/mL
same,Cmax,"clinical; iv, 1 mg",53.2 ng/mL
same,side effects observed,[3]; 0.44 mg dose inhaled,no side effects were observed
same,"Dizziness, subjects (%)","[3]; 0.88 mg DHE Inhaled, n = 12",1 (8) (%)
same,"Feeling hot, subjects (%)","[3]; 0.88 mg DHE Inhaled, n = 12",0 (%)
same,"Nausea, subjects (%)","[3]; 0.88 mg DHE Inhaled, n = 12",1 (8) (%)
same,"Paresthesia, subjects (%)","[3]; 0.88 mg DHE Inhaled, n = 12",0 (%)
same,"Vomiting, subjects (%)","[3]; 0.88 mg DHE Inhaled, n = 12",0 (%)
same,side effects observed,[3]; 0.88 mg dose inhaled,only minor side effects
same,"Dizziness, number considered by investigator related to study drug (r)","[3]; 1 mg DHE IV, n = 16",7
same,"Dizziness, subjects (%)","[3]; 1 mg DHE IV, n = 16",7 (44) (%)
same,"Feeling hot, number considered by investigator related to study drug (r)","[3]; 1 mg DHE IV, n = 16",3
same,"Feeling hot, subjects (%)","[3]; 1 mg DHE IV, n = 16",3 (19) (%)
same,"Nausea, number considered by investigator related to study drug (r)","[3]; 1 mg DHE IV, n = 16",10
same,"Nausea, subjects (%)","[3]; 1 mg DHE IV, n = 16",10 (63) (%)
same,"Paresthesia, number considered by investigator related to study drug (r)","[3]; 1 mg DHE IV, n = 16",5
same,"Paresthesia, subjects (%)","[3]; 1 mg DHE IV, n = 16",5 (31) (%)
same,"Vomiting, number considered by investigator related to study drug (r)","[3]; 1 mg DHE IV, n = 16",2
same,"Vomiting, subjects (%)","[3]; 1 mg DHE IV, n = 16",2 (13) (%)
same,side effects observed,[3]; 1.0 mg IV DHE,significant side effects including nausea and emesis
same,incidence of nausea,[3]; inhaled,8%
same,incidence of nausea,[3]; intravenous administration,63%
same,time to rapid pain relief,[4],≤ 10 min
same,IC50,[5],0.4 nM
same,IC50,[6],0.7 nM
same,IC50,[7],0.5 nM
same,IC50,[8],1100 nM
same,IC50,[9],180 nM
same,IC50,[10],1.3 nM
same,IC50,[11],3.7 µM
same,IC50,[12],60 nM
same,IC50,[13],6.6 nM
same,IC50,[14],8.3 nM
same,IC50,[15],3.1 µM
same,IC50,[16],271 nM
same,IC50,[17],1.2 nM
same,IC50,[18],6.4 nM
same,IC50,[19],8.7 nM
same,treated patients with nausea,[20],~16%
same,binding activity at muscarinic (M) receptors,muscarinic (M) receptors,minimal binding activity
"CN1C[C@H](C(=O)N[C@]2(C)O[C@@]3(O)[C@@H]4CCCN4C(=O)[C@H](Cc4ccccc4)N3C2=O)C=C2c3cccc4[nH]cc(c34)C[C@H]21 [Ergotamine, ergotamine tartrate]",onset of therapeutic efficacy,[21]; intranasal,45 min
same,onset of therapeutic efficacy,[21]; oral or sublingual delivery,120 min
same,bioavailability,[22],up to 92%
CN1C[C@H](C(=O)N[C@]2(C)O[C@@]3(O)[C@@H]4CCC(O)N4C(=O)[C@H](Cc4ccccc4)N3C2=O)C[C@@H]2c3cccc4[nH]cc(c34)C[C@H]21 (stereo partly drawn) [8′-OH Dihydroergotamine],Concentration equivalent to peak plasma concentration (Cmax),clinical; after DHE 0.44 mg inhaled,58 pg/mL
same,Concentration equivalent to peak plasma concentration (Cmax),clinical; after DHE 0.88 mg inhaled,149 pg/mL
same,Concentration equivalent to peak plasma concentration (Cmax),clinical; after DHE 1 mg IV (infusion over 3 minutes),378 pg/mL
same,Tmax of primary metabolite in circulating plasma,clinical; [23],less than 90 minutes
same,peak plasma concentration of metabolite at Cmax,clinical; [23],"less than 1,000 pg/ml"
